What was measured:
[1] = excess molar enthalpy (molar enthalpy of mixing); xn = mol fraction of the nth substance listed; conditions: 298.15 K, 101.3 kPa, Liquid, Flow calorimetry
[2] = heat capacity at constant pressure per volume; xn = mol fraction of the nth substance listed; conditions: 298.15 K, 101.3 kPa, Liquid, Flow calorimetry
[3] = refractive index (Na D-line) (dimensionless); xn = mol fraction of the nth substance listed; conditions: 298.15 K, 101.3 kPa, Liquid, refractometer
[4] = xn = mol fraction of the nth substance listed; conditions: 298.15 K, 101.3 kPa, Liquid, vibrating tube

O=C1CCCC1 [cyclopentanone] + C1COCO1
Conditions	excess molar enthalpy [kcal/mol]	heat capacity [J/K/m3]	mass density [kg/m3]	refractive index
[1], x2 = 0.1	-0.000954	–	–	–
[1], x2 = 0.2	-0.00204	–	–	–
[1], x2 = 0.3	-0.0033	–	–	–
[1], x2 = 0.4	-0.00437	–	–	–
[1], x2 = 0.5	-0.00521	–	–	–
[1], x2 = 0.6	-0.00564	–	–	–
[1], x2 = 0.7	-0.00548	–	–	–
[1], x2 = 0.8	-0.00463	–	–	–
[1], x2 = 0.9	-0.00288	–	–	–
[2], x2 = 0.0645	–	1713700	–	–
[2], x2 = 0.1429	–	1716000	–	–
[2], x2 = 0.3008	–	1720700	–	–
[2], x2 = 0.3817	–	1723100	–	–
[2], x2 = 0.4603	–	1725400	–	–
[2], x2 = 0.5381	–	1727400	–	–
[2], x2 = 0.6191	–	1729600	–	–
[2], x2 = 0.6973	–	1731600	–	–
[2], x2 = 0.8468	–	1734900	–	–
[2], x2 = 0.928	–	1736500	–	–
[3], x2 = 0.0815	–	–	–	1.43248
[3], x2 = 0.1569	–	–	–	1.43014
[3], x2 = 0.2322	–	–	–	1.42774
[3], x2 = 0.3155	–	–	–	1.425
[3], x2 = 0.3526	–	–	–	1.42375
[3], x2 = 0.3965	–	–	–	1.42224
[3], x2 = 0.4345	–	–	–	1.42091
[3], x2 = 0.4742	–	–	–	1.41949
[3], x2 = 0.5109	–	–	–	1.41816
[3], x2 = 0.5558	–	–	–	1.4165
[3], x2 = 0.5858	–	–	–	1.41537
[3], x2 = 0.6334	–	–	–	1.41355
[3], x2 = 0.6716	–	–	–	1.41206
[3], x2 = 0.7127	–	–	–	1.41042
[3], x2 = 0.7862	–	–	–	1.4074
[3], x2 = 0.8695	–	–	–	1.40385
[3], x2 = 0.9509	–	–	–	1.40023
[4], x2 = 0.0808	–	–	951.41	–
[4], x2 = 0.1586	–	–	958.77	–
[4], x2 = 0.2251	–	–	965.28	–
[4], x2 = 0.3113	–	–	974.02	–
[4], x2 = 0.3507	–	–	978.14	–
[4], x2 = 0.4024	–	–	983.65	–
[4], x2 = 0.4295	–	–	986.6	–
[4], x2 = 0.4749	–	–	991.62	–
[4], x2 = 0.509	–	–	995.47	–
[4], x2 = 0.5451	–	–	999.61	–
[4], x2 = 0.5465	–	–	999.76	–
[4], x2 = 0.5891	–	–	1004.75	–
[4], x2 = 0.6248	–	–	1009	–
[4], x2 = 0.6813	–	–	1015.89	–
[4], x2 = 0.7075	–	–	1019.14	–
[4], x2 = 0.7891	–	–	1029.57	–
[4], x2 = 0.8629	–	–	1039.38	–

CCCC(C)=O [pentan-2-one] + C1COCO1
Conditions	excess molar enthalpy [kcal/mol]	heat capacity [J/K/m3]	mass density [kg/m3]	refractive index
[1], x2 = 0.1	0.0128	–	–	–
[1], x2 = 0.15	0.0196	–	–	–
[1], x2 = 0.2	0.0266	–	–	–
[1], x2 = 0.25	0.0329	–	–	–
[1], x2 = 0.3	0.0375	–	–	–
[1], x2 = 0.35	0.0424	–	–	–
[1], x2 = 0.4	0.0462	–	–	–
[1], x2 = 0.45	0.0492	–	–	–
[1], x2 = 0.5	0.0504	–	–	–
[1], x2 = 0.55	0.0506	–	–	–
[1], x2 = 0.6	0.0498	–	–	–
[1], x2 = 0.65	0.0479	–	–	–
[1], x2 = 0.7	0.0449	–	–	–
[1], x2 = 0.75	0.0407	–	–	–
[1], x2 = 0.8	0.0353	–	–	–
[1], x2 = 0.85	0.0286	–	–	–
[1], x2 = 0.9	0.0205	–	–	–
[2], x2 = 0.0638	–	1709600	–	–
[2], x2 = 0.1404	–	1711100	–	–
[2], x2 = 0.2192	–	1712900	–	–
[2], x2 = 0.2981	–	1714700	–	–
[2], x2 = 0.3819	–	1716700	–	–
[2], x2 = 0.4598	–	1719100	–	–
[2], x2 = 0.5386	–	1721800	–	–
[2], x2 = 0.6171	–	1724700	–	–
[2], x2 = 0.6915	–	1727300	–	–
[2], x2 = 0.7737	–	1730500	–	–
[2], x2 = 0.8546	–	1733700	–	–
[2], x2 = 0.9324	–	1736700	–	–
[3], x2 = 0.0759	–	–	–	1.3885
[3], x2 = 0.1654	–	–	–	1.38924
[3], x2 = 0.2333	–	–	–	1.38982
[3], x2 = 0.3134	–	–	–	1.39054
[3], x2 = 0.3532	–	–	–	1.39091
[3], x2 = 0.3984	–	–	–	1.39134
[3], x2 = 0.431	–	–	–	1.39166
[3], x2 = 0.4741	–	–	–	1.39208
[3], x2 = 0.5178	–	–	–	1.39252
[3], x2 = 0.5578	–	–	–	1.39293
[3], x2 = 0.5924	–	–	–	1.39329
[3], x2 = 0.6321	–	–	–	1.39372
[3], x2 = 0.6761	–	–	–	1.39419
[3], x2 = 0.7128	–	–	–	1.3946
[3], x2 = 0.7928	–	–	–	1.3955
[3], x2 = 0.9448	–	–	–	1.3973
[4], x2 = 0.0882	–	–	816.74	–
[4], x2 = 0.1647	–	–	830.91	–
[4], x2 = 0.2307	–	–	843.79	–
[4], x2 = 0.3499	–	–	868.72	–
[4], x2 = 0.3798	–	–	875.35	–
[4], x2 = 0.4314	–	–	887.14	–
[4], x2 = 0.4631	–	–	894.63	–
[4], x2 = 0.5169	–	–	907.82	–
[4], x2 = 0.5183	–	–	908.18	–
[4], x2 = 0.5529	–	–	916.98	–
[4], x2 = 0.5897	–	–	926.62	–
[4], x2 = 0.6338	–	–	938.59	–
[4], x2 = 0.6667	–	–	947.78	–
[4], x2 = 0.7131	–	–	961.29	–
[4], x2 = 0.7174	–	–	962.55	–
[4], x2 = 0.7909	–	–	985.17	–
[4], x2 = 0.8704	–	–	1011.41	–
[4], x2 = 0.9486	–	–	1039.18	–
